Experimental data taken from patent publication EP1247803A2, “Indolinone compounds suitable for modulation of protein kinases” (Sugen, Inc., priority 1996, dated 1998).

Columns and labels:
EGFR = target: T1, EGFR (Homo sapiens, UniProt P00533); experiment: EGFR ELISA assay (in vitro kinase activity, EGFR captured from A431 cell lysate); type: biochemical; set-up: concentration or dose not given beside the values
T1 construct: Add 7 ug A431 cell lysate per well (EGFR source); endogenous in cells; host or cells: A431
In short: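 Receptor autophosphorylation was read by ELISA: anti-phosphotyrosine serum and an HRP-linked secondary with ABTS substrate, absorbance at 410 nm (reference 630 nm). The reaction ran 5 min with 3 µM ATP and 5 mM MnCl2 and was quenched by 20 mM EDTA. Compounds were first incubated 30 min with antibody-captured EGFR from A431 cell lysate.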

PDGF-R = PDGF-R (Homo sapiens, UniProt P09619); experiment: PDGF-R ELISA; type: cell-based
Excerpt: A PDGF-R ELISA is described in International Patent Publication No. WO 96/40116, published December 19, 1996 by Tang et al.

MET = MET biochemical kinase assay; set-up: species or system human; concentration or dose not given beside the values
In short: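 In this format, tyrosine phosphorylation of plate-captured human MET is followed in vitro after compound addition in ATP/divalent-cation buffer, detected by anti-phosphotyrosine-HRP with TMB substrate.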

Chain of PDGF-R (P09619 33-1106, species assumed): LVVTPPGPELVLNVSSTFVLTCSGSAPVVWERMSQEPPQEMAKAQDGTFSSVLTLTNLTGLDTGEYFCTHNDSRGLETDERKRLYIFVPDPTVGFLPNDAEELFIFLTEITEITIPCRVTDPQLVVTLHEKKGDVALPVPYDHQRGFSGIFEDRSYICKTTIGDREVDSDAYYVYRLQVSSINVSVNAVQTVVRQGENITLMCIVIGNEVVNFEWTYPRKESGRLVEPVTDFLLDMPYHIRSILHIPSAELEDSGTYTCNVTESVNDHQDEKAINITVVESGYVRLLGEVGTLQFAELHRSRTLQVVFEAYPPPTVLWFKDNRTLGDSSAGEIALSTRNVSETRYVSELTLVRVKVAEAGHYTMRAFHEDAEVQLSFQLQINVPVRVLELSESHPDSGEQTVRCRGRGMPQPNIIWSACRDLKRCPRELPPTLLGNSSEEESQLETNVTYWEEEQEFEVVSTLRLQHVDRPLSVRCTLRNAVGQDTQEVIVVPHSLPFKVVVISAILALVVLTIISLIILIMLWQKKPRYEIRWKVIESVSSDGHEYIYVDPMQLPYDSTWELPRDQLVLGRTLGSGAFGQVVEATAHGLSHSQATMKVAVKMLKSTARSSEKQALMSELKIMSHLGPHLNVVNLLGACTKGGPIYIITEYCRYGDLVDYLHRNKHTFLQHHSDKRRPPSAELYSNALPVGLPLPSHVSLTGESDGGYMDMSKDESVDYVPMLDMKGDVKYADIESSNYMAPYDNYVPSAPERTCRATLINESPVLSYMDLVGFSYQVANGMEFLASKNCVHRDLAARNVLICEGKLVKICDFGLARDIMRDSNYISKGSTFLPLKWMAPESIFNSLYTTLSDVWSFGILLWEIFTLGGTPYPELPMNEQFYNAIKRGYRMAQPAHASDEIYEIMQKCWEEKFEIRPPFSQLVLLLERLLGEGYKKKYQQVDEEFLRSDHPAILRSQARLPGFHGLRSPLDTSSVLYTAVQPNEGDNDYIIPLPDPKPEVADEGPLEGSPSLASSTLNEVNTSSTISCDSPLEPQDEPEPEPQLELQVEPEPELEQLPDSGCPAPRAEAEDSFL
T1 sequence (P00533 25-1210): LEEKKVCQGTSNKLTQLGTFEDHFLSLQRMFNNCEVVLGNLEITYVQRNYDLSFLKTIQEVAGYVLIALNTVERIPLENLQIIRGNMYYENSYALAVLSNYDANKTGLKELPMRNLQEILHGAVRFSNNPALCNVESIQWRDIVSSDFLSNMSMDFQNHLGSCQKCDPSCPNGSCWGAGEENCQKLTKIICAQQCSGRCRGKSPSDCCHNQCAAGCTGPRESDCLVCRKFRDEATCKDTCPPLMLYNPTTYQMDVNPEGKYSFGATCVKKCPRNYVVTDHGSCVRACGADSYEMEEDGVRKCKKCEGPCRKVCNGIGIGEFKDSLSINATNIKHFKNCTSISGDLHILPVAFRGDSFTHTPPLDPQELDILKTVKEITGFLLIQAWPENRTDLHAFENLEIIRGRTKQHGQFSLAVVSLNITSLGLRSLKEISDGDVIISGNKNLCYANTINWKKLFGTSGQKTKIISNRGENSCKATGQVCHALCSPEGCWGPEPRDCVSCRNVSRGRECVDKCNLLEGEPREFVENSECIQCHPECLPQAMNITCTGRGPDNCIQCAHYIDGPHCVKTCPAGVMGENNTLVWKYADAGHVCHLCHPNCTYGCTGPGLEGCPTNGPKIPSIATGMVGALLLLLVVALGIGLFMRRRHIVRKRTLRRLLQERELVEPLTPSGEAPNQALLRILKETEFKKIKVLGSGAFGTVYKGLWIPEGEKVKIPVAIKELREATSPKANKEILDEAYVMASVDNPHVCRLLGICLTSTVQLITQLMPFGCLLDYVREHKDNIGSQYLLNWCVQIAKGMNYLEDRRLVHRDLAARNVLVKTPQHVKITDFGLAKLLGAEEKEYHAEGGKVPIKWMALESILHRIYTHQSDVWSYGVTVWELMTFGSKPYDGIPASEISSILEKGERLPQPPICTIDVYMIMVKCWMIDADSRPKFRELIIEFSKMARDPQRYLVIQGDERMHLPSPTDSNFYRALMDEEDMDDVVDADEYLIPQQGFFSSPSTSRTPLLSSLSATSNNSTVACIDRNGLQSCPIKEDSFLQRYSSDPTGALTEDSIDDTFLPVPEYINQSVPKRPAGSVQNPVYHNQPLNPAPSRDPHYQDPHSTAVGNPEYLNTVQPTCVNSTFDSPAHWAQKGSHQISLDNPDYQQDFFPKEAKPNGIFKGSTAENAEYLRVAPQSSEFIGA

O=C1Nc2ccc(S(=O)(=O)Nc3ccc(C(F)(F)F)cc3)cc2C1=Cc1ccc(C(F)(F)F)cc1 [10722/E11]
Biochem EGFR %Inhibition (EGFR): 4.2%
PDGF Kinase %Inhibition (PDGF-R): 28.3%
Met Kinase % Inhibition (MET): 84.0%

O=C1Nc2c(Br)cc(Br)cc2C1=Cc1ccc(C(=O)O)cc1 [10722/A05]
Biochem EGFR %Inhibition (EGFR): 22.4%
PDGF Kinase %Inhibition (PDGF-R): 33.5%
Met Kinase % Inhibition (MET): 90.5%

CNS(=O)(=O)c1ccc2c(c1)C(=Cc1cc([N+](=O)[O-])c(O)c(C(C)(C)C)c1)C(=O)N2 [10722/D02]
Biochem EGFR %Inhibition (EGFR): 26.1%
PDGF Kinase %Inhibition (PDGF-R): 31.8%
Met Kinase % Inhibition (MET): 26.4%

CC(C)(C)c1cc(C=C2C(=O)Nc3ccc(I)cc32)cc([N+](=O)[O-])c1O [10722/B02]
Biochem EGFR %Inhibition (EGFR): 16.3%
PDGF Kinase %Inhibition (PDGF-R): 28.9%
Met Kinase % Inhibition (MET): 44.3%

O=C1Nc2c(Br)cc(Br)cc2C1=Cc1c(O)cc(O)cc1O [10722/A03]
Biochem EGFR %Inhibition (EGFR): 0.8%
PDGF Kinase %Inhibition (PDGF-R): 29.5%
Met Kinase % Inhibition (MET): 90.3%

O=C1Nc2ccc(S(=O)(=O)Nc3ccc(C(F)(F)F)cc3)cc2C1=Cc1c(O)cc(O)cc1O [10722/E03]
Biochem EGFR %Inhibition (EGFR): 33.0%
PDGF Kinase %Inhibition (PDGF-R): -7.2%
Met Kinase % Inhibition (MET): 88.4%

CCCCN(CCCC)c1ccc(C=C2C(=O)Nc3ccc(I)cc32)cc1 [10722/B10]
Biochem EGFR %Inhibition (EGFR): -11.3%
PDGF Kinase %Inhibition (PDGF-R): 20.3%
Met Kinase % Inhibition (MET): 56.4%

CNS(=O)(=O)c1ccc2c(c1)C(=Cc1ccc([N+](=O)[O-])s1)C(=O)N2 [10722/D04]
Biochem EGFR %Inhibition (EGFR): 20.3%
PDGF Kinase %Inhibition (PDGF-R): 15.7%
Met Kinase % Inhibition (MET): 63.4%

CNS(=O)(=O)c1ccc2c(c1)C(=Cc1ccc(C(F)(F)F)cc1)C(=O)N2 [10722/D11]
Biochem EGFR %Inhibition (EGFR): -10.1%
PDGF Kinase %Inhibition (PDGF-R): 15.2%
Met Kinase % Inhibition (MET): 41.0%

CC(C)(C)c1cc(C=C2C(=O)Nc3ccc(S(=O)(=O)Nc4ccc(C(F)(F)F)cc4)cc32)cc(Cl)c1O [10722/E08]
Biochem EGFR %Inhibition (EGFR): 10.4%
PDGF Kinase %Inhibition (PDGF-R): 38.7%
Met Kinase % Inhibition (MET): 82.8%

CNS(=O)(=O)c1ccc2c(c1)C(=Cc1c(O)cc(O)cc1O)C(=O)N2 [10722/D03]
Biochem EGFR %Inhibition (EGFR): 31.0%
PDGF Kinase %Inhibition (PDGF-R): -9.4%
Met Kinase % Inhibition (MET): 52.8%

CCCCN(CCCC)c1ccc(C=C2C(=O)Nc3c(Br)cc(Br)cc32)cc1 [10722/A10]
Biochem EGFR %Inhibition (EGFR): -4.2%
PDGF Kinase %Inhibition (PDGF-R): 15.2%
Met Kinase % Inhibition (MET): 79.0%

CC(C)(C)c1cc(C=C2C(=O)Nc3ccc(I)cc32)cc(Cl)c1O [10722/B08]
Biochem EGFR %Inhibition (EGFR): 0.5%
PDGF Kinase %Inhibition (PDGF-R): 27.8%
Met Kinase % Inhibition (MET): 72.0%

O=C1Nc2c(Br)cc(Br)cc2C1=Cc1ccc(C(F)(F)F)cc1 [10722/A11]
Biochem EGFR %Inhibition (EGFR): -0.1%
PDGF Kinase %Inhibition (PDGF-R): 21.5%
Met Kinase % Inhibition (MET): 68.6%

Cc1cc(C=C2C(=O)Nc3ccc(S(=O)(=O)Nc4ccc(C(F)(F)F)cc4)cc32)cc(C)c1O [10722/E07]
Biochem EGFR %Inhibition (EGFR): 28.7%
PDGF Kinase %Inhibition (PDGF-R): 40.9%
Met Kinase % Inhibition (MET): 71.6%

O=C1Nc2ccc(S(=O)(=O)Nc3ccc(C(F)(F)F)cc3)cc2C1=Cc1ccc(C(=O)O)cc1 [10722/E05]
Biochem EGFR %Inhibition (EGFR): -7.0%
PDGF Kinase %Inhibition (PDGF-R): 19.2%
Met Kinase % Inhibition (MET): 73.0%

O=C1Nc2c(Br)cc(Br)cc2C1=Cc1ccc([N+](=O)[O-])s1 [10722/A04]
Biochem EGFR %Inhibition (EGFR): 21.0%
PDGF Kinase %Inhibition (PDGF-R): -0.9%
Met Kinase % Inhibition (MET): 51.4%

CNS(=O)(=O)c1ccc2c(c1)C(=Cc1ccc(C(=O)O)cc1)C(=O)N2 [10722/D05]
Biochem EGFR %Inhibition (EGFR): -3.8%
PDGF Kinase %Inhibition (PDGF-R): 22.0%
Met Kinase % Inhibition (MET): 35.8%

O=C1Nc2c(Br)cc(Br)cc2C1=Cc1ccc(F)cc1F [10722/A06]
Biochem EGFR %Inhibition (EGFR): 28.4%
PDGF Kinase %Inhibition (PDGF-R): 19.8%
Met Kinase % Inhibition (MET): 71.6%

CNS(=O)(=O)c1ccc2c(c1)C(=Cc1ccc(F)cc1F)C(=O)N2 [10722/D06]
Biochem EGFR %Inhibition (EGFR): -2.5%
PDGF Kinase %Inhibition (PDGF-R): 8.9%
Met Kinase % Inhibition (MET): 32.4%

CC(C)(C)c1cc(C=C2C(=O)Nc3ccc(S(=O)(=O)Nc4ccc(C(F)(F)F)cc4)cc32)cc([N+](=O)[O-])c1O [10722/E02]
Biochem EGFR %Inhibition (EGFR): 22.2%
PDGF Kinase %Inhibition (PDGF-R): 23.2%
Met Kinase % Inhibition (MET): 71.1%

O=C1Nc2ccc(S(=O)(=O)Nc3ccc(C(F)(F)F)cc3)cc2C1=Cc1csc([N+](=O)[O-])c1 [10722/E09]
Biochem EGFR %Inhibition (EGFR): 4.1%
PDGF Kinase %Inhibition (PDGF-R): 26.6%
Met Kinase % Inhibition (MET): 55.1%

CC(C)(C)c1cc(C=C2C(=O)Nc3c(Br)cc(Br)cc32)cc(Cl)c1O [10722/A08]
Biochem EGFR %Inhibition (EGFR): 23.9%
PDGF Kinase %Inhibition (PDGF-R): 15.2%
Met Kinase % Inhibition (MET): 70.5%

O=C1Nc2ccc(I)cc2C1=Cc1ccc([N+](=O)[O-])s1 [10722/B04]
Biochem EGFR %Inhibition (EGFR): 10.6%
PDGF Kinase %Inhibition (PDGF-R): 3.1%
Met Kinase % Inhibition (MET): 53.4%

O=C1Nc2ccc(I)cc2C1=Cc1c(O)cc(O)cc1O [10722/B03]
Biochem EGFR %Inhibition (EGFR): 19.6%
PDGF Kinase %Inhibition (PDGF-R): 3.7%
Met Kinase % Inhibition (MET): 40.1%

CNS(=O)(=O)c1ccc2c(c1)C(=Cc1cc(Cl)c(O)c(C(C)(C)C)c1)C(=O)N2 [10722/D08]
Biochem EGFR %Inhibition (EGFR): -2.6%
PDGF Kinase %Inhibition (PDGF-R): 41.5%
Met Kinase % Inhibition (MET): 60.5%

O=C1Nc2ccc(I)cc2C1=Cc1ccc(F)cc1F [10722/B06]
Biochem EGFR %Inhibition (EGFR): -4.9%
PDGF Kinase %Inhibition (PDGF-R): 21.5%
Met Kinase % Inhibition (MET): 72.6%
